How the values were obtained:
[1] = test system: ABUTH (Abutilon theophrasti); assay: Postemergence herbicidal evaluation; type: in vivo, Medic.
Method in brief: (§1)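 Seedlings grown for about two weeks were sprayed postemergence and then kept under standard greenhouse care. Injury was rated visually 4–5 weeks after treatment on a 0–9 scale against untreated controls, and ratings from repeat tests were averaged.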

[2] = test system: SAGPY (Sagittaria pygmaea); assay: Flooded paddy, preemergence weed control; type: in vivo, L.; conditions: rated 3-4 weeks after treatment, 0-9 rating scale
Method in brief: (§2)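 Silt loam, sowing depth ≤0.5 cm; permanent flood 1.5–3 cm above soil; greenhouse culture after treatment. Readout: 0-9 visual scale (stand, vigor, malformation, size, chlorosis, appearance) vs control.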

GALAP (Galium aparine) = assay: Postemergence herbicidal evaluation; type: in vivo
Method in brief: as §1

[3] = test system: ECHCG (Echinochloa crus-galli); assay: Preemergence herbicidal evaluation; type: in vivo, (L.) Beau; conditions: preemergence, rated 4-5 weeks after treatment
Method in brief: (§3)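 Greenhouse preemergence test: freshly planted cups were sprayed once with an aqueous acetone solution of compound. Injury was judged visually on a 0–9 scale relative to a control, four to five weeks later.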

SETVI (Setaria viridis) [4] = assay: Preemergence herbicidal evaluation; type: in vivo, (L.) Beau; conditions: preemergence, rated 4-5 weeks after treatment
Method in brief: as §3

ZEAMX (Corn, Field) = assay: Postemergence herbicidal evaluation; type: in vivo, Zea mays, L.
Method in brief: as §1

[5] = test system: ECHORC (Echinochloa oryzoides); assay: Flooded paddy, preemergence weed control; type: in vivo, Echinochloa oryzoides (Ard.) Fritsch.; conditions: rated 3-4 weeks after treatment, 0-9 rating scale
Method in brief: as §2

ORYSAT (Rice, Tebonnet) [6] = assay: Preemergence herbicidal evaluation; type: in vivo, Oryza sativa, (L.) Tebonnet; conditions: preemergence, rated 4-5 weeks after treatment
[7] = test system: AMBEL (Ambrosia artemisifolia); assay: Preemergence herbicidal evaluation; type: in vivo, L.; conditions: preemergence, rated 4-5 weeks after treatment
Method in brief: as §3

[8] = test system: CHEAL (Chenopodium album); assay: Preemergence herbicidal evaluation; type: in vivo, L.; conditions: preemergence, rated 4-5 weeks after treatment
Method in brief: as §3

[9] = test system: CASOB (Cassia obtusifolia); assay: Preemergence herbicidal evaluation; type: in vivo, L.; conditions: preemergence, rated 4-5 weeks after treatment
Method in brief: as §3

[10] = test system: IPOHE (Ipomoea hederacea); assay: Postemergence herbicidal evaluation; type: in vivo, (L.) Jacq.
Method in brief: as §1

[11] = test system: GLXMAW (Soybean, Williams); assay: Postemergence herbicidal evaluation; type: in vivo, Glycine max, (L.) Merr. cv Williams
Method in brief: as §1

ORYSAT (Rice, Tebonnet) [12] = assay: Flooded paddy, post-transplant rice tolerance; type: in vivo, Oryza sativa, (L.) Tebonnet; conditions: flooded paddy, post-transplant rice, rated 3-4 weeks after treatment, 0-9 rating scale
Method in brief: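 Two ten-day-old Tebonnet rice seedlings transplanted into silt loam, then flooded with water held at 1.5–3 cm above soil; herbicide applied post-transplant. Plants kept in greenhouse and rated visually 0–9 versus untreated control for stand, vigor, malformation, size and chlorosis.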

[13] = test system: IPOHE (Ipomoea hederacea); assay: Preemergence herbicidal evaluation; type: in vivo, (L.) Jacq.; conditions: preemergence, rated 4-5 weeks after treatment
[14] = test system: ECHCG (Echinochloa crus-galli); assay: Postemergence herbicidal evaluation; type: in vivo, (L.) Beau
Method in brief: as §1

CYPIR (Cyperus iria) = assay: Flooded paddy, preemergence weed control; type: in vivo; conditions: rated 3-4 weeks after treatment, 0-9 rating scale
Method in brief: as §2

ORYSAT (Rice, Tebonnet) [15] = assay: Postemergence herbicidal evaluation; type: in vivo, Oryza sativa, (L.) Tebonnet
Method in brief: as §1

SETVI (Setaria viridis) [16] = assay: Postemergence herbicidal evaluation; type: in vivo, (L.) Beau
Method in brief: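 Ratings use a 0-9 visual scale covering stand, vigor, malformation, size, chlorosis and appearance versus a control, scored 4-5 weeks post-spray. Roughly two-week-old seedlings received about 0.0040-1.000 kg/ha active, applied in 50/50 acetone/water with 0.5% TWEEN 20. Multiple tests per compound were averaged.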

[17] = test system: MOOVA (Monochoria vaginalis); assay: Flooded paddy, preemergence weed control; type: in vivo, Presl.; conditions: rated 3-4 weeks after treatment, 0-9 rating scale
Method in brief: as §2

COc1ccsc1-c1nsc2ccc(-n3c(=O)cc(C(F)(F)F)n(C)c3=O)cc12 [Compound 10, 3-[3-(3-methoxy-2-thienyl)-1,2-benzisothiazol-5-yl]-1-methyl-6-(trifluoromethyl)uracil]
Postemergence herbicidal rating, ABUTH ([1]; rate 0.0320 kg/ha): 8.0 | Postemergence herbicidal rating, ABUTH ([1]; rate 0.0620 kg/ha): 8.0 | Postemergence herbicidal rating, ABUTH ([1]; rate 0.1250 kg/ha): 9.0 | herbicidal rating, SAGPY ([2]; rate 0.0320 kg/ha): 0.0 | herbicidal rating, SAGPY ([2]; rate 0.1250 kg/ha): 0.0 | Postemergence herbicidal rating, GALAP (GALAP (Galium aparine); rate 0.0320 kg/ha): 1.0 | Postemergence herbicidal rating, GALAP (GALAP (Galium aparine); rate 0.0620 kg/ha): 1.0 | Postemergence herbicidal rating, GALAP (GALAP (Galium aparine); rate 0.1250 kg/ha): 9.0 | ECHCG preemergence herbicidal rating ([3]; Rate 0.0620 kg/ha): 0.5 | ECHCG preemergence herbicidal rating ([3]; Rate 0.1250 kg/ha): 5.0 | ECHCG preemergence herbicidal rating ([3]; Rate 0.2500 kg/ha): 9.0 | SETVI preemergence herbicidal rating (SETVI (Setaria viridis) [4]; Rate 0.0620 kg/ha): 7.5 | SETVI preemergence herbicidal rating (SETVI (Setaria viridis) [4]; Rate 0.1250 kg/ha): 9.0 | SETVI preemergence herbicidal rating (SETVI (Setaria viridis) [4]; Rate 0.2500 kg/ha): 9.0 | Postemergence herbicidal rating, ZEAMX (ZEAMX (Corn, Field); rate 0.0320 kg/ha): 3.8 | Postemergence herbicidal rating, ZEAMX (ZEAMX (Corn, Field); rate 0.0620 kg/ha): 5.0 | Postemergence herbicidal rating, ZEAMX (ZEAMX (Corn, Field); rate 0.1250 kg/ha): 5.0 | herbicidal rating, ECHORC ([5]; rate 0.0320 kg/ha): 0.0 | herbicidal rating, ECHORC ([5]; rate 0.1250 kg/ha): 5.0 | ORYSAT preemergence herbicidal rating (ORYSAT (Rice, Tebonnet) [6]; Rate 0.0620 kg/ha): 1.0 | ORYSAT preemergence herbicidal rating (ORYSAT (Rice, Tebonnet) [6]; Rate 0.1250 kg/ha): 3.0 | ORYSAT preemergence herbicidal rating (ORYSAT (Rice, Tebonnet) [6]; Rate 0.2500 kg/ha): 7.0 | AMBEL preemergence herbicidal rating ([7]; Rate 0.0620 kg/ha): 4.0 | AMBEL preemergence herbicidal rating ([7]; Rate 0.1250 kg/ha): 6.0 | AMBEL preemergence herbicidal rating ([7]; Rate 0.2500 kg/ha): 7.0 | CHEAL preemergence herbicidal rating ([8]; Rate 0.0620 kg/ha): 8.0 | CHEAL preemergence herbicidal rating ([8]; Rate 0.1250 kg/ha): 9.0 | CHEAL preemergence herbicidal rating ([8]; Rate 0.2500 kg/ha): 9.0 | CASOB preemergence herbicidal rating ([9]; Rate 0.0620 kg/ha): 0.5 | CASOB preemergence herbicidal rating ([9]; Rate 0.1250 kg/ha): 1.0 | CASOB preemergence herbicidal rating ([9]; Rate 0.2500 kg/ha): 1.0 | Postemergence herbicidal rating, IPOHE ([10]; rate 0.0320 kg/ha): 2.0 | Postemergence herbicidal rating, IPOHE ([10]; rate 0.0620 kg/ha): 2.0 | Postemergence herbicidal rating, IPOHE ([10]; rate 0.1250 kg/ha): 7.0 | Postemergence herbicidal rating, GLXMAW ([11]; rate 0.0320 kg/ha): 4.8 | Postemergence herbicidal rating, GLXMAW ([11]; rate 0.0620 kg/ha): 5.0 | Postemergence herbicidal rating, GLXMAW ([11]; rate 0.1250 kg/ha): 6.0 | herbicidal rating, ORYSAT (rice tolerance) (ORYSAT (Rice, Tebonnet) [12]; rate 0.0320 kg/ha): 0.0 | herbicidal rating, ORYSAT (rice tolerance) (ORYSAT (Rice, Tebonnet) [12]; rate 0.1250 kg/ha): 4.0 | IPOHE preemergence herbicidal rating ([13]; Rate 0.0620 kg/ha): 0.5 | IPOHE preemergence herbicidal rating ([13]; Rate 0.1250 kg/ha): 0.5 | IPOHE preemergence herbicidal rating ([13]; Rate 0.2500 kg/ha): 2.0 | Postemergence herbicidal rating, ECHCG ([14]; rate 0.0320 kg/ha): 0.0 | Postemergence herbicidal rating, ECHCG ([14]; rate 0.0620 kg/ha): 0.0 | Postemergence herbicidal rating, ECHCG ([14]; rate 0.1250 kg/ha): 0.0 | herbicidal rating, CYPIR (CYPIR (Cyperus iria); rate 0.0320 kg/ha): 4.0 | herbicidal rating, CYPIR (CYPIR (Cyperus iria); rate 0.1250 kg/ha): 9.0 | Postemergence herbicidal rating, ORYSAT (ORYSAT (Rice, Tebonnet) [15]; rate 0.0320 kg/ha): 1.3 | Postemergence herbicidal rating, ORYSAT (ORYSAT (Rice, Tebonnet) [15]; rate 0.0620 kg/ha): 1.8 | Postemergence herbicidal rating, ORYSAT (ORYSAT (Rice, Tebonnet) [15]; rate 0.1250 kg/ha): 3.0 | Postemergence herbicidal rating, SETVI (SETVI (Setaria viridis) [16]; rate 0.0320 kg/ha): 0.0 | Postemergence herbicidal rating, SETVI (SETVI (Setaria viridis) [16]; rate 0.0620 kg/ha): 0.5 | Postemergence herbicidal rating, SETVI (SETVI (Setaria viridis) [16]; rate 0.1250 kg/ha): 0.0 | herbicidal rating, MOOVA ([17]; rate 0.0320 kg/ha): 9.0 | herbicidal rating, MOOVA ([17]; rate 0.1250 kg/ha): 9.0
